Test results published in US20230287044A1, “NOVEL ANTIBACTERIAL PEPTIDE AND USE THEREOF” (priority 2020, published 2023).
Converted amounts (≈) assume the structure as drawn. Square brackets hold non-standard residues; d marks the D form. Ends that are not written are not given here. Peptide text beside a SMILES is read from it. * marks the point of attachment. NH(β-GlcNAc) = CC(=O)N[C@@H]1[C@@H](O)[C@H](O)[C@@H](CO)O[C@H]1N*; Decanoyl = CCCCCCCCCC(=O)*; Hexanoyl = CCCCCC(=O)*

How the values were obtained:
[1] = test system: MRPA (P. aeruginosa) CCARM 2180; type: cell-based, Pseudomonas aeruginosa; conditions: CCARM 2180, 18 h
How it was run: (§1)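 Mid-log cultures grown in CAMHB and diluted to 1× 10^6 cfu/ml in PBS were mixed with an equal volume of peptide in CAMHB (80 µM to 0.63 µM twofold dilutions). MIC taken as the mean of three independent experiments.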

[2] = test system: MRAB (A. baumannii) ATCC BAA 1605; type: cell-based, Acinetobacter baumannii; conditions: ATCC BAA 1605, 18 h
How it was run: as §1

[3] = test system: MRSA (S. aureus) KCCM 40510; type: cell-based, Staphylococcus aureus; conditions: KCCM 40510, 18 h
How it was run: as §1

[4] = test system: VRE (E. faecalis) ATCC 51575; type: cell-based, Enterococcus faecalis; conditions: ATCC 51575, 18 h
How it was run: as §1

Compound	MIC MRPA (P. aeruginosa) CCARM 2180 [1] [µM]	MIC MRAB (A. baumannii) ATCC BAA 1605 [2] [µM]	MIC MRSA (S. aureus) KCCM 40510 [3] [µM]	MIC VRE (E. faecalis) ATCC 51575 [4] [µM]
CC[C@@H](C)[C@@H](NC(=O)[C@@H](Cc1c[nH]c2ccccc12)NC(=O)[C@@H](C)NC(=O)[C@@H](C)NC(=O)[C@H](N)Cc1c[nH]c2ccccc12)C(=O)NCC(=O)N[C@H](CC(C)C)C(=O)N[C@H](CCCNC(=N)N)C(=O)N[C@H](CCCCN)C(=O)N[C@H](CCCNC(=N)N)C(=O)N[C@H](CCCCN)C(N)=O [KSH77, waawiglrkrk] (H-[dW][dA][dA][dW][dI]G[dL][dR][dK][dR][dK]-NH2; N-terminus assumed)	>10	2.5 (≈ 3.46 µg/mL)	>10	>10
WLLWVYVRKKR-NH2 [XSH2]	20	1.25	25	5
CCCCCC(=O)NCCCC[C@@H](N)C(=O)N[C@H](Cc1c[nH]c2ccccc12)C(=O)N[C@H](CC(C)C)C(=O)N[C@H](CC(C)C)C(=O)N[C@H](Cc1c[nH]c2ccccc12)C(=O)N[C@@H](C(=O)NCC(=O)N[C@H](CC(C)C)C(=O)N[C@H](CCCNC(=N)N)C(=O)N[C@H](CCCCN)C(=O)N[C@H](CCCCN)C(=O)N[C@H](CCCNC(=N)N)C(N)=O)[C@H](C)CC [KSH9, kwllwiglrkkr] (H-[dK](Hexanoyl)[dW][dL][dL][dW][dI]G[dL][dR][dK][dK][dR]-NH2; N-terminus assumed)	10 (≈ 16.9 µg/mL)	5 (≈ 8.47 µg/mL)	1.25 (≈ 2.12 µg/mL)	1.25 (≈ 2.12 µg/mL)
CC[C@@H](C)[C@@H](NC(=O)[C@@H](Cc1c[nH]c2ccccc12)NC(=O)[C@@H](CCCCN)NC(=O)[C@@H](CCCNC(=N)N)NC(=O)[C@H](N)CCCNC(=N)N)C(=O)N[C@H](Cc1c[nH]c2ccccc12)C(=O)N[C@H](Cc1c[nH]c2ccccc12)C(=O)N[C@H](CC(C)C)C(=O)N[C@H](Cc1c[nH]c2ccccc12)C(=O)N[C@H](CCCCN)C(=O)N[C@H](CCCCN)C(=O)N[C@H](CCCCN)C(N)=O [KSH52, rrkwiwwlwkkk] (H-[dR][dR][dK][dW][dI][dW][dW][dL][dW][dK][dK][dK]-NH2; N-terminus assumed)	5 (≈ 9.07 µg/mL)	1.25 (≈ 2.27 µg/mL)	5 (≈ 9.07 µg/mL)	5 (≈ 9.07 µg/mL)
CC(C)[C@@H](NC(=O)[C@H](N)Cc1c[nH]c2ccccc12)C(=O)N[C@H](C)C(=O)N[C@H](Cc1c[nH]c2ccccc12)C(=O)N[C@H](C)C(=O)N[C@@H](C(=O)N[C@H](Cc1c[nH]c2ccccc12)C(=O)N[C@H](CCCNC(=N)N)C(=O)N[C@H](CCCNC(=N)N)C(=O)N[C@H](CCCNC(=N)N)C(N)=O)C(C)C [KSH71, wvawavwrrr] (H-[dW][dV][dA][dW][dA][dV][dW][dR][dR][dR]-NH2; N-terminus assumed)	>10	1.25 (≈ 1.73 µg/mL)	5 (≈ 6.92 µg/mL)	2.5 (≈ 3.46 µg/mL)
CCCCCCCCCC(=O)NCCCC[C@@H](NC(=O)[C@@H](CCCCN)NC(=O)[C@@H](CCCNC(=N)N)NC(=O)[C@@H](CC(C)C)NC(=O)[C@@H](C)NC(=O)[C@H](NC(=O)[C@@H](Cc1c[nH]c2ccccc12)NC(=O)[C@@H](CC(C)C)NC(=O)[C@@H](CC(C)C)NC(=O)[C@H](N)Cc1c[nH]c2ccccc12)[C@H](C)CC)C(=O)N[C@H](CCCNC(=N)N)C(N)=O [KSH4, wllwialrkkr] (H-[dW][dL][dL][dW][dI][dA][dL][dR][dK][dK](Decanoyl)[dR]-NH2; N-terminus assumed)	>40	>40	5 (≈ 8.18 µg/mL)	5 (≈ 8.18 µg/mL)
CCCCCCCCCC(=O)NCCCC[C@@H](N)C(=O)N[C@H](Cc1c[nH]c2ccccc12)C(=O)N[C@H](CC(C)C)C(=O)N[C@H](CC(C)C)C(=O)N[C@H](Cc1c[nH]c2ccccc12)C(=O)N[C@@H](C(=O)NCC(=O)N[C@H](CC(C)C)C(=O)N[C@H](CCCNC(=N)N)C(=O)N[C@H](CCCCN)C(=O)N[C@H](CCCCN)C(=O)N[C@H](CCCNC(=N)N)C(N)=O)[C@H](C)CC [KSH10, kwllwiglrkkr] (H-[dK](Decanoyl)[dW][dL][dL][dW][dI]G[dL][dR][dK][dK][dR]-NH2; N-terminus assumed)	>20	>20	5 (≈ 8.75 µg/mL)	5 (≈ 8.75 µg/mL)
WLAWLYLRKKR-NH2 [LSH8]	>40	5	20	20
CC(C)[C@@H](NC(=O)[C@H](N)Cc1c[nH]c2ccccc12)C(=O)N[C@@H](C(=O)N[C@H](Cc1c[nH]c2ccccc12)C(=O)N[C@H](C)C(=O)N[C@H](C)C(=O)N[C@H](Cc1c[nH]c2ccccc12)C(=O)N[C@H](CCCNC(=N)N)C(=O)N[C@H](CCCNC(=N)N)C(=O)N[C@H](CCCNC(=N)N)C(N)=O)C(C)C [KSH72, wvvwaawrrr] (H-[dW][dV][dV][dW][dA][dA][dW][dR][dR][dR]-NH2; N-terminus assumed)	10 (≈ 13.8 µg/mL)	2.5 (≈ 3.46 µg/mL)	2.5 (≈ 3.46 µg/mL)	5 (≈ 6.92 µg/mL)
CC[C@@H](C)[C@@H](NC(=O)[C@@H](Cc1c[nH]c2ccccc12)NC(=O)[C@@H](CCCNC(=N)N)NC(=O)[C@@H](CCCNC(=N)N)NC(=O)[C@@H](CCCNC(=N)N)NC(=O)[C@@H](N)CC(=O)N[C@@H]1O[C@H](CO)[C@@H](O)[C@H](O)[C@H]1NC(C)=O)C(=O)N[C@H](Cc1c[nH]c2ccccc12)C(=O)N[C@@H](C(=O)N[C@H](CC(C)C)C(=O)N[C@H](Cc1c[nH]c2ccccc12)C(=O)N[C@H](CCCCN)C(N)=O)C(C)C [KSH47, Nrrrwiwvlwk] (H-D(NH(β-GlcNAc))[dR][dR][dR][dW][dI][dW][dV][dL][dW][dK]-NH2; N-terminus assumed)	10 (≈ 18.2 µg/mL)	1.25 (≈ 2.27 µg/mL)	2.5 (≈ 4.54 µg/mL)	2.5 (≈ 4.54 µg/mL)
WLLWVLWRKKR-NH2 [LSH3]	20	1.25	2.5	2.5
CC[C@@H](C)[C@@H](NC(=O)[C@@H](Cc1c[nH]c2ccccc12)NC(=O)[C@@H](CCCNC(=N)N)NC(=O)[C@@H](CCCNC(=N)N)NC(=O)[C@H](N)CCCNC(=N)N)C(=O)N[C@H](Cc1c[nH]c2ccccc12)C(=O)N[C@H](Cc1c[nH]c2ccccc12)C(=O)N[C@H](CC(C)C)C(=O)N[C@H](Cc1c[nH]c2ccccc12)C(=O)N[C@H](CCCCN)C(N)=O [KSH50, rrrwiwwlwk] (H-[dR][dR][dR][dW][dI][dW][dW][dL][dW][dK]-NH2; N-terminus assumed)	2.5 (≈ 3.96 µg/mL)	0.63 (≈ 0.999 µg/mL)	1.25 (≈ 1.98 µg/mL)	1.25 (≈ 1.98 µg/mL)
CC[C@@H](C)[C@@H](NC(=O)[C@@H](Cc1c[nH]c2ccccc12)NC(=O)[C@H](NC(=O)[C@@H](Cc1c[nH]c2ccccc12)NC(=O)[C@@H](CCCNC(=N)N)NC(=O)[C@@H](CCCNC(=N)N)NC(=O)[C@H](N)CCCNC(=N)N)[C@H](C)CC)C(=O)N[C@H](CC(C)C)C(=O)N[C@H](Cc1c[nH]c2ccccc12)C(N)=O [KSH59, rrrwiwilw] (H-[dR][dR][dR][dW][dI][dW][dI][dL][dW]-NH2; N-terminus assumed)	2.5 (≈ 3.46 µg/mL)	1.25 (≈ 1.73 µg/mL)	0.63 (≈ 0.872 µg/mL)	0.63 (≈ 0.872 µg/mL)
CC[C@@H](C)[C@@H](NC(=O)[C@@H](Cc1c[nH]c2ccccc12)NC(=O)[C@@H](C)NC(=O)[C@@H](C)NC(=O)[C@H](N)Cc1c[nH]c2ccccc12)C(=O)NCC(=O)N[C@H](CC(C)C)C(=O)N[C@H](CCCNC(=N)N)C(=O)N[C@H](CCCNC(=N)N)C(N)=O [KSH78, waawiglrr] (H-[dW][dA][dA][dW][dI]G[dL][dR][dR]-NH2; N-terminus assumed)	>10	5 (≈ 5.64 µg/mL)	>10	>10
WLWVWVRKKR-NH2 [LSH5]	40	2.5	10	10
